# Results from patent publication US7033615B2, “Methods for regulating levels of zinc, cadmium and calcium in humans and for diagnosing, or screening for the risk of developing, diseases associated with abnormal levels of cadmium, zinc and calcium in body fluids and tissues” (CancEr2 Inc., priority 1999, dated 2006).
# Columns and labels:
# [1] = Counter-exchange of serum cadmium to erythrocytes (erythrocyte Cd/(erythrocyte Cd+serum Cd)) in men given cadmium sulfate; assay type: in vivo; conditions: CdSO4 1 mg daily
# Experimental: (§1) Three healthy men with low PSA levels (below 2 ng/ml) volunteered for weekly blood and urine collection while a serial treatment of zinc, zinc with cadmium, and cadmium was administered. Treatment was given daily over a nine week period, followed by three weeks of continued sampling with no treatment. The zinc was administered in the form of zinc sulfate (Zn SO4) at a daily dosage of 75 mg. The cadmium was administered in the form of cadmium sulfate (CdSO4) at a daily dosage of 1 mg. Blood and urine were collected one day prior to the beginning of treatment for purposes of establishing a baseline level of chemicals in the blood and urine. Zinc salt administration began on the second day of the study and was administered each morning. On day 15, the cadmium salt administration was begun in the evening, with continued zinc salt administration continuing in the morning. Zinc administration was discontinued on day 43; cadmium administration continued through day 57. On days 58–78 of the study, neither zinc nor cadmium was administered, but blood and urine samples continued to be collected. Blood and urine were collected one day each week (days 1, 8, 15, etc.) for a total of 12 collection days over an 11 week period. […]
# (§2) The second syringe contained no EDTA and was used to collect blood serum. […] All processed blood samples were stored in a −80° C. freezer until analyzed. […]
# [2] = test system: rat tissue vs human tissue; conditions: rat tissue more sensitive than human tissue; cited from earlier work
# erythrocytes = assay: Blockage of calcium penetration into erythrocytes (serum calcium/erythrocyte calcium) in men given cadmium sulfate; assay type: in vivo; conditions: three men, CdSO4 1 mg daily
# Experimental: as §1, §2
smiles,measurement,setting,value
"O=S(=O)([O-])[O-].[Cd+2] [cadmium, cadmium sulfate]",increase of counter-exchange of serum cadmium to erythrocytes in each man,"[1]; three healthy low-PSA men, minimum increase per man",≥ 116%
same,average cadmium counter-exchange after cadmium treatment (mean+/-S.D.),"[1]; three men, increased from 0.311 +/-0.166",0.466+/−0.077
same,sensitivity of rat tissue to cadmium relative to human tissue,[2],30 times
same,increase of blockage to calcium penetration in each man,erythrocytes,178–330%
same,average blockage of calcium penetration after cadmium treatment (mean+/-S.D.),"erythrocytes; increased from 114.79+/-21.135, p=0.0492",314.001+/−150.942
